Structures are written as SMILES. A value given as a limit tells only on which side of the number the result lay.

A short description of this assay: ET-1 Assay: Fibroblasts (primary human lung and dermal, HFL-1, 3T3 etc) are seeded in 96-well plates at ~15000 cells/well and serum starved for 0-48 hours. After media exchange, compounds serially diluted in DMSO are added to the cells. After a brief incubation of ~30 min, stimulants (TGFb, serum, LPA etc) are added followed by further incubation for 16-48 hours. Media is then harvested and stored frozen in plate format for later endothelin-1 (ET-1) determination by ELISA. Toxicity measurements are made using the ATPlite kit (Perkin-Elmer). ET-1 is quantified using an ELISA kit (R&D Systems). The amount of ET-1 produced in the assay wells are back-calculated using the ELISA standard. The ability of a compound to inhibit ET-1 production is typically analyzed by fitting dose-response curves to a 4-parameter logistic function to obtain an EC50 value. Conditions: HFL1.
One may read the EC50 as the concentration needed to bring the measured effect to its halfway point. Take `Cc1cc(=O)n(-c2ccc3c(c2)OCO3)cc1-c1cnn(C)c1`: the EC50 is greater than 200 µM.

Regarding `Cc1ccc(F)c(-c2ccccc2)c1`, the EC50 is greater than 200 µM.

In the case of `Cc1cc(=O)n(-c2cccc(OC(F)(F)F)c2)cc1-c1ccc(F)cc1`, the EC50 is less than 50 µM.

In the case of `CC(C)c1cc(=O)n(-c2ccc(OC(F)(F)F)cc2)cc1-c1cnn(C)c1`, the EC50 entry is “in the range around 125 µM”.

Turning to `O=c1c2[nH]ncc2c(-c2ccc(F)cc2)cn1-c1ccc(OC(F)(F)F)cc1`, the EC50 is less than 50 µM.

Turning to `Cc1n[nH]c(C)c1-c1ccc(=O)n(-c2cccc(C(F)(F)F)c2)c1`, the EC50 result is “in the range around 125 µM”.

`C[C@H]1CCC(=O)N(c2ccccc2)C1`: the half-maximal effective concentration (EC50) was greater than 200 µM.

Turning to `O=C1COc2c(-c3ccc(F)cc3)cn(-c3ccc(OC(F)(F)F)cc3)c(=O)c2N1Cc1ccccc1`, the EC50 is greater than 200 µM.

For the molecule `CC(=O)c1ccc(=O)n(-c2ccc(OC(C)C)cc2)c1`, the EC50 is greater than 200 µM.

Regarding `CCn1nnc2c(=O)n(-c3ccc(OC(F)(F)F)cc3)cc(-c3ccc(F)cc3)c21`, the EC50 is less than 50 µM.

For the molecule `CCOc1ccc(-n2cc(-c3cn[nH]c3)c3c(c2=O)CCCC3)c(C)c1`, the EC50 is less than 50 µM.

`CCn1nnc2c(-c3cnn(C)c3)cn(-c3ccc(OC(F)(F)F)cc3)c(=O)c21`: the EC50 was less than 50 µM.

For the molecule `CCOc1ccc(-n2cc(-c3cccc(F)c3)c(C)cc2=O)c(C)c1`, the EC50 entry is “in the range around 125 µM”.

`Cn1cc(-c2cn(-c3ccc(OC(F)(F)F)cc3)c(=O)cc2N2CCCCC2)cn1`: the EC50 was greater than 200 µM.

As for `O=c1ccc(C(F)(F)F)cn1-c1ccccc1Cl`, the EC50 was greater than 200 µM.

As for `CCOc1ccc(-n2cc(-c3ccccc3)c(C)cc2=O)c(C)c1`, the EC50 result is “in the range around 125 µM”.

For `Cc1cc(=O)n(-c2ccc(OC(F)(F)F)cc2)cc1-c1cnsc1`, the EC50 is greater than 200 µM.

Consider `Cc1cc(=O)n(-c2ccc(OC(F)(F)F)cc2)cc1-c1cccc2c1NC(=O)CO2`, for which the EC50 is greater than 200 µM.

With `Cc1cc(=O)n(-c2ccc(F)c(NC(N)=O)c2)cc1-c1ccc(F)cc1`, the EC50 is less than 50 µM.

For `CCn1nnc2c(=O)[nH]cc(-c3cnn(C)c3)c21`, the concentration for a half-maximal effect (EC50) is greater than 200 µM.

In the case of `Cc1cc(=O)n(-c2ccc(OC(F)(F)F)cc2)cc1-c1ccc2c(c1)OCCO2`, the EC50 result is “in the range around 125 µM”.

`Cn1cc(-c2cn(-c3ccc(OC(F)(F)F)cc3)c(=O)c3c2ccn3CCO)cn1`: the EC50 is less than 50 µM.

As for `O=c1c2[nH]ccc2ccn1-c1ccc(OC(F)(F)F)cc1`, the EC50 was less than 50 µM.

`CCCCOC(=O)Nc1cc(=O)n(-c2ccc(OC(F)(F)F)cc2)cc1-c1cnn(C)c1`: the EC50 entry was “in the range around 125 µM”.

Regarding `CCn1ccc2c(-c3cn[nH]c3)cn(-c3ccc(OC(F)(F)F)cc3)c(=O)c21`, the EC50 was less than 50 µM.

Consider `CN1C(=O)COc2c(-c3ccc(F)cc3)cn(-c3ccc(OC(F)(F)F)cc3)c(=O)c21`, for which the EC50 is greater than 200 µM.

Consider `Cc1cc(-c2ccc(F)cc2)cn(-c2ccc(OC(F)(F)F)cc2)c1=O`, for which the EC50 entry was “in the range around 125 µM”.

Take `Cc1cc(=O)n(-c2ccc(C(F)(F)F)cc2)cc1-c1cnn(C)c1`: the EC50 result is “in the range around 125 µM”.

On to `CC(C)Oc1ccc(-n2cc(-c3cn[nH]c3)ccc2=O)cc1`, for which the EC50 entry is “in the range around 125 µM”.

Regarding `O=c1c2[nH]nnc2c(-c2cn[nH]c2)cn1-c1ccc(OC(F)(F)F)cc1`, the EC50 entry was “in the range around 125 µM”.

As for `CCCOC(=O)Nc1cc(=O)n(-c2ccc(OC(F)(F)F)cc2)cc1-c1ccc(F)cc1`, the EC50 was greater than 200 µM.

In the case of `Cc1cc(=O)n(-c2ccc(OC(F)(F)F)cc2)cc1-c1ccnn1C`, the EC50 is greater than 200 µM.

Turning to `CCOC(=O)n1cc(-c2ccc(=O)n(-c3ccccc3)c2)cn1`, the EC50 is less than 50 µM.

`Cc1cc(=O)n(-c2ccc(OC(F)(F)F)cc2)cc1-c1cccc2scnc12`: the EC50 was greater than 200 µM.

On to `COCCOc1ccc(-n2cc(-c3ccccc3)c(C)cc2=O)cc1`, for which the EC50 was less than 50 µM.

With `O=C1COc2c(-c3ccc(F)cc3)cn(-c3ccc(OC(F)(F)F)cc3)c(=O)c2N1`, the 50% effective concentration (EC50) was greater than 200 µM.

As to `Cn1cc(-c2cn(-c3ccc(OC(F)(F)F)cc3)c(=O)cc2Oc2cccc(Cl)c2)cn1`, the EC50 was less than 50 µM.

Consider `COc1ccc(CNc2cc(=O)n(-c3ccc(OC(F)(F)F)cc3)cc2-c2cnn(C)c2)cc1`, for which the EC50 is less than 50 µM.

For the molecule `Cc1cc(=O)n(-c2ccc(OC(F)(F)F)cc2)cc1-c1cscn1`, the EC50 entry is “in the range around 125 µM”.

As for `O=c1c2c(c(-c3ccc(F)cc3)cn1-c1ccc(OC(F)(F)F)cc1)CCCC2`, the EC50 was greater than 200 µM.

With `CCn1c(=O)oc2ccc(-c3c[nH]c(=O)cc3C)cc21`, the EC50 is less than 50 µM.

Consider `Cc1cc(=O)n(-c2cccc(C(F)(F)F)c2)cc1-c1cnn(C)c1`, for which the EC50 is greater than 200 µM.

`Cc1cc(=O)n(-c2ccc(OC(F)(F)F)cc2)cc1-c1ccc(F)c(F)c1`: the EC50 result is “in the range around 125 µM”.

Take `Cc1cc(=O)n(-c2ccc(OC(F)(F)F)cc2)cc1C(F)(F)F`: the EC50 was greater than 200 µM.

Turning to `CCn1ccc2c(=O)n(-c3ccc(OC(F)(F)F)cc3)cc(-c3ccc(F)cc3)c21`, the EC50 was less than 50 µM.

For `O=C1CNCCN1CCOc1cc(=O)n(-c2ccc(OC(F)(F)F)cc2)cc1-c1ccc(F)cc1`, the EC50 is greater than 200 µM.

Take `COCCOc1cc(=O)n(-c2ccc(OC(F)(F)F)cc2)cc1-c1ccc(F)cc1`: the EC50 was greater than 200 µM.

Regarding `O=c1cc(OCCN2CCOCC2)c(-c2ccc(F)cc2)cn1-c1ccc(OC(F)(F)F)cc1`, the half-maximal effective concentration (EC50) entry was “in the range around 125 µM”.

For `CC(C)c1ccc(=O)n(-c2ccccc2)c1`, the EC50 is greater than 200 µM.

For `Cn1cc(-c2cn(-c3ccc(OC(F)(F)F)cc3)c(=O)c3c2CCN3C(=O)OC(C)(C)C)cn1`, the 50% effective concentration (EC50) is less than 50 µM.

On to `O=c1ccc(-c2cnn(Cc3ccccc3)c2)cn1-c1ccccc1`, for which the EC50 entry was “in the range around 125 µM”.

Regarding `Cc1nc2ccn(-c3ccc(OC(F)(F)F)cc3)c(=O)c2s1`, the EC50 was greater than 200 µM.

Take `COCCOc1ccc(-n2cc(-c3cn[nH]c3)c(C)cc2=O)cc1`: the concentration giving a half-maximal response (EC50) was greater than 200 µM.

On to `COc1cc(=O)n(-c2ccc(OC(F)(F)F)cc2)cc1-c1ccc(F)cc1`, for which the EC50 was greater than 200 µM.

Consider `O=c1ccc(C(F)(F)F)cn1-c1ccc(NCCN2CCN(CCO)CC2)cc1Cl`, for which the EC50 entry was “in the range around 125 µM”.

Turning to `CC(C)n1nnc2c(-c3cnn(C)c3)cn(-c3ccc(OC(F)(F)F)cc3)c(=O)c21`, the half-maximal effective concentration (EC50) was less than 50 µM.

Turning to `Cn1cc(-c2cnc(=O)n(-c3ccc(OC(F)(F)F)cc3)c2)cn1`, the EC50 is greater than 200 µM.

In the case of `Cn1cc(-c2c[nH]c(=O)c3[nH]nnc23)cn1`, the EC50 is greater than 200 µM.

As to `Cn1cc(-c2cn(-c3ccc(OC(F)(F)F)cc3)c(=O)cc2Oc2ccccc2F)cn1`, the EC50 is greater than 200 µM.

On to `Cn1cc(-c2cn(-c3ccc(OC(F)(F)F)cc3)c(=O)cc2Cl)cn1`, for which the 50% effective concentration (EC50) is greater than 200 µM.

Consider `Cc1cc(=O)n(-c2ccc(OC(F)(F)F)cc2)cc1-c1cccc2c1N(C)C(=O)CO2`, for which the EC50 was greater than 200 µM.

Turning to `Cc1cc(=O)n(-c2ccc3scnc3c2)cc1-c1cnn(C)c1`, the EC50 was greater than 200 µM.

With `O=c1c2[nH]ccc2c(-c2cn[nH]c2)cn1-c1ccc(Cl)cc1`, the EC50 is less than 50 µM.

Take `O=c1ccc(-c2cncnc2)cn1-c1ccc(F)cc1`: the EC50 was greater than 200 µM.

Regarding `Cc1cc(=O)n(-c2ccc(OC(F)(F)F)cc2)cc1-c1ccc2[nH]c(=O)oc2c1`, the EC50 is greater than 200 µM.

`Cn1cc(-c2cn(-c3ccc(OC(F)(F)F)cc3)c(=O)cc2Oc2ccc(F)cc2)cn1`: the EC50 is less than 50 µM.

Take `CCOc1ccc(-n2cc(-c3ccc(F)cc3)ccc2=O)c(C)c1`: the EC50 was greater than 200 µM.

For the molecule `Cn1cc(-c2cn(-c3ccc(OC(F)(F)F)cc3)c(=O)cc2Oc2ccccc2Cl)cn1`, the EC50 is less than 50 µM.

As to `COc1cccc(-n2cc(-c3ccc(S(N)(=O)=O)cc3)ccc2=O)c1`, the EC50 was greater than 200 µM.

As to `Cc1cc(=O)n(-c2ccccc2)cc1-c1ccc(F)cc1`, the EC50 entry is “in the range around 125 µM”.

As to `CCOc1ccc(Oc2cc(=O)n(-c3ccc(OC(F)(F)F)cc3)cc2-c2cnn(C)c2)cc1C`, the EC50 is greater than 200 µM.

Turning to `CCOc1ccc(-n2cc(-c3cnn(C)c3)c(OC3CCOCC3)cc2=O)c(C)c1`, the EC50 result is “in the range around 125 µM”.

`Cc1cc(=O)n(-c2ccccc2F)cc1-c1ccc(F)cc1`: the EC50 entry was “in the range around 125 µM”.

Consider `CC(=O)Nc1cc(=O)n(-c2ccc(OC(F)(F)F)cc2)cc1-c1ccc(F)cc1`, for which the EC50 was greater than 200 µM.

As to `CC(C)Oc1ccc(-n2cc(-c3cccc(Cl)c3)ccc2=O)cc1`, the EC50 was less than 50 µM.

On to `Cc1cc(=O)n(-c2cccc(OC(F)(F)F)c2)cc1-c1cnn(C)c1`, for which the EC50 was greater than 200 µM.

On to `Cn1cc(-c2cn(-c3ccc(OC(F)(F)F)cc3)c(=O)c3ccc(C(F)(F)F)nc23)cn1`, for which the EC50 is less than 50 µM.

Turning to `Cn1cc(-c2cn(-c3ccc(OC(F)(F)F)cc3)c(=O)cc2OCCN2CCOCC2)cn1`, the EC50 is greater than 200 µM.

With `O=c1cc(Cl)c(-c2ccc(F)cc2)cn1-c1ccc(OC(F)(F)F)cc1`, the EC50 was less than 50 µM.

Take `CCOc1ccc(CNc2cc(=O)n(-c3ccc(OCC)cc3C)cc2-c2cnn(C)c2)c(C)c1`: the EC50 was less than 50 µM.

On to `COc1ccc(-c2ccc(=O)n(-c3ccccc3F)c2)cc1`, for which the EC50 is greater than 200 µM.

In the case of `Cn1cc(-c2cn(-c3ccc(OC(F)(F)F)cc3)c(=O)c3nc[nH]c23)cn1`, the EC50 is greater than 200 µM.

For the molecule `CN1CCN(CCOc2cc(=O)n(-c3ccc(OC(F)(F)F)cc3)cc2-c2ccc(F)cc2)CC1`, the EC50 is less than 50 µM.

Take `O=c1cc(NCc2ccccn2)ccn1-c1ccc(OC(F)(F)F)cc1`: the half-maximal effective concentration (EC50) was less than 50 µM.

In the case of `O=c1ccc(-c2cccc(Cl)c2)cn1-c1ccc(Cl)cc1`, the EC50 is less than 50 µM.

On to `O=c1c2c(c(-c3cccc(F)c3)cn1-c1ccc(OC(F)(F)F)cc1)CCCC2`, for which the EC50 is less than 50 µM.

On to `Cc1cc(=O)n(-c2ccc(OC(F)(F)F)cc2)cc1-c1nn[nH]n1`, for which the EC50 is greater than 200 µM.

`CCOc1ccc(-n2cc(-c3cnn(C)c3)c(NCc3ccccn3)cc2=O)c(C)c1`: the EC50 entry is “in the range around 125 µM”.

Source of the values: ChEMBL document CHEMBL5725356, “Anti-fibrotic pyridinones” (2017).
